Columns and labels:
human STING = human STING (Homo sapiens, UniProt Q86WV6); assay: Fluorescence Thermal Shift assay (binding to STING); conditions: STING 0.1 mg/mL, SyproOrange, 25 to 99° C.
In short: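 Human STING (0.1 mg/mL final) preincubated 20 min with compounds in 50 mM Hepes, 150 mM NaCl, pH 7.5, then SyproOrange added. Thermal unfolding 25–99 °C at 0.033 °C/s continuous ramp monitored by fluorescence.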

[1] = test system: CT26 murine colon carcinoma allografts; assay: In vivo anti-tumor efficacy in CT26 allografts; design: species or system female Balb/C mice; conditions: intravenously, once every fifth day on three occasions
Method: The efficacy of Example 4, Example 31 and Example 57 was evaluated in established CT26 murine colon carcinoma allografts in female Balb/C mice. Compounds were formulated in 5% ethanol with 10% Captisol in PBS and administered intravenously, once every fifth day on three occasions. The solution was prepared fresh prior to each administration. […] By the end of the study there was one complete response among animals treated at 10 mg/kg of Example 4. […] By the end of the study, on day 43, there was one complete response recorded in group treated at 20 mg/kg of Example 57.

[2] = test system: interferon regulatory factor (IRF) pathway in THP-1 dual cells; assay: THP-1 Dual reporter assay, IRF pathway (luciferase); type: cell-based; conditions: Homo sapiens, THP1-Dual; 18 h stimulation, luminescence; read-out: THP1 Dual EC50 (μM) IRF
In short: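 THP-1 dual reporter cells, 18 h STING agonist stimulation. IRF: medium + luciferase reagent, luminescence read immediately (ISG54/5×ISRE reporter).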

[3] = test system: NF-κB pathway in THP-1 dual cells; assay: THP-1 Dual reporter assay, NF-κB pathway (SEAP); type: cell-based; conditions: Homo sapiens, THP1-Dual; 18 h stimulation, absorbance at 630 or 655 nm; read-out: THP1 Dual EC50 (μM) NFkB
In short: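 After 18 h exposure of THP-1 dual cells to the STING agonist compounds, culture medium was collected. Part was mixed with luminescence reagent and read at once for IRF-driven luciferase; another part was incubated with SEAP detection medium for 1 or 2 hours at 37° C before absorbance at 630 or 655 nm.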

Chain of human STING (Q86WV6 whole entry H232R): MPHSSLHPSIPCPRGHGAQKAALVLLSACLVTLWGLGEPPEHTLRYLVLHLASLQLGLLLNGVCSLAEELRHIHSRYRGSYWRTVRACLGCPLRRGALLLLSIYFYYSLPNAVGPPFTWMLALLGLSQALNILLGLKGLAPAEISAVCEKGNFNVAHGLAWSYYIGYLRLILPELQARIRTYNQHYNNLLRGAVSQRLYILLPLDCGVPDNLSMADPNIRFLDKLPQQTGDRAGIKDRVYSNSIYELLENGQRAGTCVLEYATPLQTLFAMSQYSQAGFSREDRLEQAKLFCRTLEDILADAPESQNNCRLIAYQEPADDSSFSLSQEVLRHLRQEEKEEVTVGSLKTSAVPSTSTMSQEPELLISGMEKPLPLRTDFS

Row | Compound | hSTING FTS binding assay (ΔT C. °) (human STING) | EC50 [2] [µM] | EC50 [3] [µM] | anti-tumor efficacy (tumor growth vs control group) ([1]; 5 mg/kg) | anti-tumor efficacy (tumor growth vs control group) ([1]; 10 mg/kg) | anti-tumor efficacy (tumor growth vs control group) ([1]; 20 mg/kg) | complete responses by the end of the study ([1]; 20 mg/kg, day 43) | response of CT26 tumors to treatment [1] | anti-tumor efficacy (tumor growth vs control group) ([1]; 7 mg/kg) | complete responses by the end of the study ([1]; 10 mg/kg) | anti-tumor efficacy (tumor growth vs control group) ([1]; 15 mg/kg) | anti-tumor efficacy (tumor growth vs control group) ([1]; 30 mg/kg) | complete responses by the end of the study ([1]; 30 mg/kg, day 43)
1 | Cc1ccc(N2CCC[C@H](N(Cc3ccnc(C)c3)Cc3cn(C4CC4)c4cc(N5CCC[C@H](O)C5)c(F)cc4c3=O)C2)cn1.Cl [Example 31, 1-cyclopropyl-6-fluoro-7-[(3S)-3-hydroxypiperidin-1-yl]-3-({[(3S)-1-(6-methylpyridin-3-yl)piperidin-3-yl][(2-methylpyridin-4-yl)methyl]amino}methyl)-1,4-dihydroquinolin-4-one hydrochloride] | +++ (+++=ΔTm ≥20° C.) | < 1 | < 1 | – | – | – | – | responded prominently | slight tumor growth delay | – | prominently efficacious | prominently efficacious | two
2 | Cc1cc(CN(Cc2cn(C3CC3)c3cc(N4CC[C@@H](O)C4)c(F)cc3c2=O)[C@H]2CCCN(c3cccnc3)C2)ccn1 [Example 78, 1-Cyclopropyl-6-fluoro-7-[(3R)-3-hydroxypyrrolidin-1-yl]-3-({[(2-methylpyridin-4-yl)methyl][(3S)-1-(pyridin-3-yl)piperidin-3-yl]amino}methyl)-1,4-dihydroquinolin-4-one] | +++ (+++=ΔTm ≥20° C.) | < 1 | < 1 | – | – | – | – | – | – | – | – | – | –
3 | Cc1cnc(N2C[C@@H](F)C[C@H](N(Cc3ccnc(C)c3)Cc3cn(C4CC4)c4cc(N5CCC[C@H](O)C5)c(F)cc4c3=O)C2)cn1 [Example 82, 1-cyclopropyl-6-fluoro-3-({[(3S,5S)-5-fluoro-1-(5-methylpyrazin-2-yl)piperidin-3-yl][(2-methylpyridin-4-yl)methyl]amino}methyl)-7-[(3S)-3-hydroxypiperidin-1-yl]-1,4-dihydroquinolin-4-one] | ++ (++=10<ΔTm <20° C.) | < 1 | < 1 | – | – | – | – | – | – | – | – | – | –

Continued, in another order:

Row | hSTING FTS binding assay (ΔT C. °) (human STING) | EC50 [2] [µM] | EC50 [3] [µM] | Compound | anti-tumor efficacy (tumor growth vs control group) ([1]; 5 mg/kg) | anti-tumor efficacy (tumor growth vs control group) ([1]; 10 mg/kg) | anti-tumor efficacy (tumor growth vs control group) ([1]; 20 mg/kg) | complete responses by the end of the study ([1]; 20 mg/kg, day 43) | response of CT26 tumors to treatment [1] | anti-tumor efficacy (tumor growth vs control group) ([1]; 7 mg/kg) | complete responses by the end of the study ([1]; 10 mg/kg) | anti-tumor efficacy (tumor growth vs control group) ([1]; 15 mg/kg) | anti-tumor efficacy (tumor growth vs control group) ([1]; 30 mg/kg) | complete responses by the end of the study ([1]; 30 mg/kg, day 43)
4 | +++ (+++=ΔTm ≥20° C.) | – | – | Cc1ccc(N2CCC[C@H](N(Cc3ccnc(C)c3)Cc3cn(C4CC4)c4cc(N5CC[C@H](N)C(F)(F)C5)c(F)cc4c3=O)C2)cn1.Cl (single isomer, unassigned) [Example 57] | minimal tumor growth delay | moderately efficacious | full efficacious | one | responded prominently | – | – | – | – | –
5 | +++ (+++=ΔTm ≥20° C.) | < 1 | < 1 | COc1cc(CN(Cc2cn(C3CC3)c3cc(F)c(F)cc3c2=O)[C@H]2CCCN(c3ccc(N)nc3)C2)ccn1.Cl [Example 4, 3-({[(3S)-1-(6-Aminopyridin-3-yl)piperidin-3-yl][(2-methoxypyridin-4-yl)methyl]amino}methyl)-1-cyclopropyl-6,7-difluoro-1,4-dihydroquinolin-4-one hydrochloride] | – | efficacious | – | – | responded prominently | efficacious | one | – | – | –
6 | +++ (+++=ΔTm ≥20° C.) | < 1 | < 1 | Cc1ccc(N2C[C@@H](F)C[C@H](N(Cc3ccnc(C)c3)Cc3cn(C4CC4)c4cc(OCCO)c(F)cc4c3=O)C2)cn1 [Example 75, 1-cyclopropyl-6-fluoro-3-({[(3S,5S)-5-fluoro-1-(6-methylpyridin-3-yl)piperidin-3-yl][(2-methylpyridin-4-yl)methyl]amino}methyl)-7-(2-hydroxyethoxy)-1,4-dihydroquinolin-4-one] | – | – | – | – | – | – | – | – | – | –
7 | +++ (+++=ΔTm ≥20° C.) | < 1 | < 1 | Cc1cc(CN(Cc2cn(C3CC3)c3cc(N4CCC[C@H](O)C4)c(F)cc3c2=O)[C@H]2CCCN(c3cccnc3)C2)ccn1.Cl [Example 86, 1-cyclopropyl-6-fluoro-7-[(3S)-3-hydroxypiperidin-1-yl]-3-({[(2-methylpyridin-4-yl)methyl][(3S)-1-(pyridin-3-yl)piperidin-3-yl]amino}methyl)-1,4-dihydroquinolin-4-one hydrochloride] | – | – | – | – | – | – | – | – | – | –

Source: patent US12643879B2, “Functionalized heterocyclic compounds as modulators of stimulator of interferon genes (STING)” (RYVU THERAPEUTICS S.A., priority 2019, dated 2026)
